These results are taken from PMC7961048, “Hierarchized phosphotarget binding by the seven human 14-3-3 isoforms” (Nature Communications, 2021).

For one assay, the target named is T1, 14-3-3ζ (Homo sapiens, UniProt P63104).
T1 construct: Plasmids containing the cDNAs of the full-length 14-3-3 isoforms ε, γ, and ζ were received; made in house; host or cells: E. coli BL21(DE3)
T1 sequence (P63104 1-245): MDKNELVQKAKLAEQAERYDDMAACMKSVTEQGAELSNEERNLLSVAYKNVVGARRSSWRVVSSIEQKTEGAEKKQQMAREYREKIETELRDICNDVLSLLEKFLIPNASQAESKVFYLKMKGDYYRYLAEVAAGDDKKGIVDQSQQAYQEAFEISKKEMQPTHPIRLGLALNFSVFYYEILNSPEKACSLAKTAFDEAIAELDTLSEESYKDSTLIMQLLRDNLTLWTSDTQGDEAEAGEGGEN
Briefly: biochemical. In kind it is binding. How it is done:
(§1) The seven full-length human 14-3-3 isoforms, produced as fusions to a maltose-binding protein (MBP), were analyzed for their interaction with four phospho-PBMs from E6 proteins of HPV types 16, 18, 33, and 35 belonging to subgroups 1 and 2 (as defined in Supplementary Fig. 1). For comparison, we also measured two non-viral phospho-PBMs originating from protein kinase RSK1[28]. We used a competitive fluorescence polarization (FP) assay that measures the displacement of a fluorescent tracer phosphopeptide (here, derived from the HSPB6 protein) bound beforehand to 14-3-3, by an increasing amount of the peptide of interest.
(§2) For affinity measurements, full-length human 14-3-3 constructs with an N-terminal MBP fusion were used. Plasmids containing the cDNAs of the full-length 14-3-3 isoforms ε, γ, and ζ were received from Prof. Lawrence Banks. cDNAs encoding other full-length 14-3-3 isoforms β, τ, η, and σ were obtained as codon-optimized for E. coli expression synthetic genes from IDT Technologies (Coralville, Iowa, USA). All 14-3-3 isoforms were fused via a three-alanine linker to the C terminus of a mutant MBP carrying the following amino acid substitutions facilitating crystallization: D83A, K84A, K240A, E360A, K363A, and D364A[62]. All resulting clones were verified by sequencing. The MBP-fused proteins were expressed in E. coli BL21(DE3) with IPTG induction. Proteins were affinity purified on an amylose column and were further purified by ion-exchange chromatography (HiTrap Q HP, GE Healthcare). Unfused 14-3-3 isoforms devoid of the flexible C-terminal tails (14-3-3βΔC, 14-3-3τΔC 14-3-3εΔC) were expressed using IPTG induction and purified by subtractive IMAC and SEC[40]. Protein concentrations were determined by UV spectroscopy. The samples were supplemented with glycerol and TCEP before aliquoting and freezing in liquid nitrogen.
(§3) Unless otherwise stated, all phosphopeptide-binding measurements were performed using full-length 14-3-3 proteins fused to the C terminus of MBP, favoring optimal solubility and a standardized parallel purification scheme.
(§4) FP was measured with a PHERAstar (BMG Labtech, Offenburg, Germany) microplate reader by using 485 ± 20 and 528 ± 20 nm band-pass filters (for excitation and emission, respectively). In direct FP measurements, a dilution series of the 14-3-3 protein was prepared in 96-well plates (96-well skirted PCR plate, 4ti-0740, 4titude, Wotton, UK) in a 20 mM HEPES pH 7.5 buffer containing 150 mM NaCl, 0.5 mM TCEP, 0.01% Tween 20, 50 nM fluorescently labeled fpB6 peptide, and 100 μM FSC, if indicated. The volume of the dilution series was 40 μl, which was later divided into three technical replicates of 10 μl upon transferring to 384-well micro-plates (low binding microplate, 384 well, E18063G5, Greiner Bio-One, Kremsmünster, Austria). In total, polarization of the probe was measured at eight different protein concentrations (whereas one contained no protein and corresponded to the free peptide). In competitive FP measurements, the same buffer was supplemented with the protein to achieve a complex formation of 60–80%, based on the direct titration. Then, this mixture was used for creating a dilution series of the unlabeled competitor (i.e., the studied peptides) and the measurement was carried out identically as in the direct experiment.
(§5) All FP experiments were done in triplicates. Analysis of FP experiments were carried out using ProFit, an in-house developed, Python-based fitting program. ProFit utilizes a Monte Carlo approach to take into account experimental variability. It generates hundreds of simulated datasets, based on the experimental data variance and fits direct and competitive measurements in pairs.

For another assay, the target named is T2, 14-3-3σ (Homo sapiens, UniProt P31947).
T2 construct: cDNAs encoding other full-length 14-3-3 isoforms β, τ, η, and σ were obtained as codon-optimized; made in house; host or cells: E. coli BL21(DE3)
T2 sequence (P31947 1-248): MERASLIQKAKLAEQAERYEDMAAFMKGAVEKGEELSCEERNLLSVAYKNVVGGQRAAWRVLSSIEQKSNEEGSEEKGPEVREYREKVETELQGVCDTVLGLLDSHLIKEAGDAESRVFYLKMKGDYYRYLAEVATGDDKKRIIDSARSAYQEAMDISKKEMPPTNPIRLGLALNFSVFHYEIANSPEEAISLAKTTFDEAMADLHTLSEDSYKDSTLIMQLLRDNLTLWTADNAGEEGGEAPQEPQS
Briefly: biochemical. In kind it is binding. How it is done:
as §1, §2, §3, §4, §5

The target in the next assay is T3, 14-3-3η (Homo sapiens, UniProt Q04917).
T3 construct: cDNAs encoding other full-length 14-3-3 isoforms β, τ, η, and σ were obtained as codon-optimized; made in house; host or cells: E. coli BL21(DE3)
T3 sequence (Q04917 1-246): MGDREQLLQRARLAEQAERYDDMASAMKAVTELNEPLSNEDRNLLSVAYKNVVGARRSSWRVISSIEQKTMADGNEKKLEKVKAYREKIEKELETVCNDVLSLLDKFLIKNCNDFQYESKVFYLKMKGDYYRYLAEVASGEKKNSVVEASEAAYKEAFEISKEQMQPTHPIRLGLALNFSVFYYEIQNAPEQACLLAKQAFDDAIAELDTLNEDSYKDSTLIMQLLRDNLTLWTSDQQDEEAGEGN
The experiment in a line: biochemical. In kind it is binding. How it is done: as §1, §2, §3, §4, §5

The next assay deals with T4, 14-3-3ε (Homo sapiens, UniProt P62258).
T4 construct: Plasmids containing the cDNAs of the full-length 14-3-3 isoforms ε, γ, and ζ were received; made in house; host or cells: E. coli BL21(DE3)
T4 sequence (P62258 1-255): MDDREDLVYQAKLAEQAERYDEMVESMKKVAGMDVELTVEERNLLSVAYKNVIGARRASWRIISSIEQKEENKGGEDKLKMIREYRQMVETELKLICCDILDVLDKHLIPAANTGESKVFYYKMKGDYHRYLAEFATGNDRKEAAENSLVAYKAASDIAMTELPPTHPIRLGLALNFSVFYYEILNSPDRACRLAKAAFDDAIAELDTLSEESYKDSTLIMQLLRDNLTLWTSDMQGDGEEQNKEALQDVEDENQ
The experiment in a line: biochemical. In kind it is binding. How it is done: as §1, §2, §3, §4, §5

In a further assay the target is T5, 14-3-3β (Homo sapiens, UniProt P31946).
T5 construct: cDNAs encoding other full-length 14-3-3 isoforms β, τ, η, and σ were obtained as codon-optimized; made in house; host or cells: E. coli BL21(DE3)
T5 sequence (P31946 1-246): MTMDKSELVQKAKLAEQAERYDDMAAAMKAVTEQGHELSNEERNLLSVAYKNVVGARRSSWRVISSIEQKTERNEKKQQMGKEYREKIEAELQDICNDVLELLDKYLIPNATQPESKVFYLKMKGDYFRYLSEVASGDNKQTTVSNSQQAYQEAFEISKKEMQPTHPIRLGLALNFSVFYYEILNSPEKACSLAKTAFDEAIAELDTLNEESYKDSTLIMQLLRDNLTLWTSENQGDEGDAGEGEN
Briefly: biochemical. The assay is classed as binding. How it is done:
as §1, §2, §3, §4, §5

For a further assay, the target named is T6, 14-3-3γ (Homo sapiens, UniProt P61981).
T6 construct: full-length human 14-3-3 constructs with an N-terminal MBP fusion were used; made in house; host or cells: E. coli BL21(DE3)
T6 sequence (P61981 1-247): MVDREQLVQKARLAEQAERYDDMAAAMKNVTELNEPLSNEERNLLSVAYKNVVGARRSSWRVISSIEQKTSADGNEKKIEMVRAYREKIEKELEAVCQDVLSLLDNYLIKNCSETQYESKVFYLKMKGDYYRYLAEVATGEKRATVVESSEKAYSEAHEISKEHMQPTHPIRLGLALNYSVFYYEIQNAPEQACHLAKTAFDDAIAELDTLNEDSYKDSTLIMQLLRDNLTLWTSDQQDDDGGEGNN
The experiment in a line: biochemical. The assay is classed as binding. How it is done: as §1, §2, §3, §4, §5

For a further assay, the target named is T7, 14-3-3τ (Homo sapiens, UniProt P27348).
T7 construct: cDNAs encoding other full-length 14-3-3 isoforms β, τ, η, and σ were obtained as codon-optimized; made in house; host or cells: E. coli BL21(DE3)
T7 sequence (P27348 1-245): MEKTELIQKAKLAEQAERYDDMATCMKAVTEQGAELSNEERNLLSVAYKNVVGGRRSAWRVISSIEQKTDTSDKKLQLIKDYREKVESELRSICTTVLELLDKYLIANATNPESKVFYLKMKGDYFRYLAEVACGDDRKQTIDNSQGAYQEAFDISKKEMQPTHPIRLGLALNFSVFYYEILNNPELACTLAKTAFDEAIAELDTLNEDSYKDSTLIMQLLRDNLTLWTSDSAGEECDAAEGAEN
Briefly: biochemical. In kind it is binding. How it is done:
as §1, §2, §3, §4, §5

Another assay concerns the target 14-3-3 isoforms. The conditions noted are these: Figure 4 panel a, literature-curated motifs, unit from the colour scale line, cited from earlier work.

Like-named read-outs stand apart in the source and are kept apart here. Starred links: 1 amine or outer side, 2 acyl side, 3 side chain; linkers in the order of their positions; H or OH if unused. Non-standard residues stand in square brackets, D forms with d. Residues, ends and D or L forms follow the SMILES beside them. *: point of attachment. X1 = O=C(CCCC[C@@H]1SC[C@@H]2NC(=O)N[C@@H]21)NCCCOCCOCCOCCCN*; pT = C[C@@H](OP(=O)(O)O)[C@H](N)C(=O)O; Suc = O=C(CCC(=O)[*:2])[*:1]

`CC(C)[C@H](NC(=O)[C@H](C)NC(=O)[C@@H](NC(=O)[C@H](CCC(=O)O)NC(=O)[C@H](CCCNC(=N)N)NC(=O)[C@H](CCCNC(=N)N)NC(=O)[C@H](CCCNC(=N)N)NC(=O)[C@@H]1CCCN1C(=O)[C@H](CCCCN)NC(=O)[C@H](CO)NC(=O)CCC(=O)NCCCOCCOCCOCCCNC(=O)CCCC[C@@H]1SC[C@@H]2NC(=O)N[C@@H]21)[C@@H](C)OP(=O)(O)O)C(=O)O` [pHPV35E6T-6R, E-1A] ({X1-Suc}-SKPRRRE[pT]AV-OH): the equilibrium dissociation constant (Kd) at 14-3-3ζ worked out at 7.3 ± 0.4 µM; on 14-3-3σ it was 18.9 ± 1.9 µM; on 14-3-3η, 4.8 ± 0.5 µM; at 14-3-3ε, 13 ± 2 µM; on 14-3-3β, 7.1 ± 0.5 µM; at 14-3-3γ it was 3.3 ± 0.2 µM. Besides, on 14-3-3τ, binding was put at a Kd of 5.8 ± 0.4 µM.

For “C-Raf254-264 (RQRSTSTPNVH; UniProt P04049 254-264, looked up, fragment)”, the Kd at 14-3-3 isoforms (14-3-3β, read-out: Binding affinities (KD) of various 14-3-3-binding motifs, 14-3-3β) is 9.5 µM; at 14-3-3 isoforms (14-3-3γ, read-out: Binding affinities (KD) of various 14-3-3-binding motifs, 14-3-3γ), 3.7 µM; at 14-3-3 isoforms (14-3-3ε, read-out: Binding affinities (KD) of various 14-3-3-binding motifs, 14-3-3ε), 15.1 µM; on 14-3-3 isoforms (14-3-3ζ, read-out: Binding affinities (KD) of various 14-3-3-binding motifs, 14-3-3ζ), 16.6 µM; on 14-3-3 isoforms (14-3-3η, read-out: Binding affinities (KD) of various 14-3-3-binding motifs, 14-3-3η), 6.3 µM; on 14-3-3 isoforms (14-3-3σ, read-out: Binding affinities (KD) of various 14-3-3-binding motifs, 14-3-3σ), 67.1 µM. In addition, the Kd at 14-3-3 isoforms (14-3-3τ, read-out: Binding affinities (KD) of various 14-3-3-binding motifs, 14-3-3τ) is 26.6 µM.
